Measured values as given in patent US11266715B2, “C3A receptor agonists for use against ischemic brain injury, stroke, traumatic brain injury, spinal cord injury and neurodegenerative disorders” (priority 2016, dated 2022).

What was measured:
[1] = tested on: mice subjected to neonatal HI injury; test: Cue-induced fear conditioning after neonatal HI injury, 7 days intranasal treatment; type: in vivo, mouse
Description: In the long-term study (7 days of intranasal treatment), […] of wild-type (WT) and C3aR^−/− mice subjected to neonatal HI injury and treated with either C3a or PBS were used; WT HI-C3a (n=5), WT HI-PBS (n=8), C3aR^−/− HI-C3a (n=7), C3aR^−/− HI-PBS (n=8). These mice were tested in a cue-induced fear conditioning test at P50 and brains were collected at P51 (FIG. 7A).
Neonatal HI injury was induced on postnatal day 9 (P9), as previously described with modifications for mice (Hedtjärn et al., 2002; Rice et al., 1981; Sheldon et al., 1998). Mice were anesthetized with 3.5% isoflurane (Baxter Medical, Kista, Sweden) for induction and 1.5% thereafter, in 1:1 oxygen and nitrous oxide. The left common carotid artery was dissected and permanently ligated with a prolene suture (6.0). […]
Cue-induced fear conditioning with a shock-paired tone and light cue was performed on P49 and P50 as previously described (Järlestedt et al., 2011). […] Freezing behaviour, a defensive response to a perceived threat, was defined as a complete lack of movement and quantified by scoring freezing behaviour (on video footage) as present or absent once every 10 s for 2 min. […] On P50, animals were again placed in the conditioning box and freezing behaviour was measured for 2 min. Following this, the shock-paired tone and light were presented for 30 s and freezing behaviour was then measured again for 2 min. […]

[2] = tested on: cultured primary astrocytes; details: cited from earlier work
[3] = tested on: mice subjected to neonatal HI injury; test: Histomorphologic evaluation of hippocampus volume after neonatal HI; type: in vivo, mouse; details: WT or C3aR−/− mice, regardless of treatment length, P51-55
Description: On P51 (long-term study) or P55 (short-term study), mice were deeply anesthetized with thiopental [Pentothal Sodium (0.01 ml/g body weight), Hospira, Ill., USA)] and transcardially perfused with 0.9% saline, followed by 4% paraformaldehyde (PFA) in 0.1 M PBS. Brains were removed and post-fixed in 4% PFA at 4° C. for 24 h followed by 70% ethanol for 24 h. Tissue was processed using an automatic tissue processor (SAKURA Tissue Tek VIP 3000, Tournai, Belgium) and embedded in paraffin. Brains were cut at room temperature into 8-μm serial coronal sections using a sliding microtome (Microm HM 450, Thermo Scientific, Massachusetts, USA), attached to silane coated slides and dried at RT.
For the histomorphologic evaluation, slides were incubated for 1 h at 65° C. and stained with haematoxylin and eosin. A wide-field microscope (Nikon Eclipse 80i; Nikon Instruments Inc., Tokyo, Japan) equipped with a color camera (Nikon DXM 1200F) was used to obtain images of brain sections 208 μm apart between −1.60 mm and −2.02 mm relative to Bregma; 3 sections/mouse. ImageJ 1.46r software was used to trace around the ipsilesional and contralesional hippocampus and hemisphere. Volumes were calculated according to the Cavalieri's principle, where V=ΣA×P×T (Svedin et al., 2007) and hippocampus volume/hemisphere volume ratio was calculated for each hemisphere.

C3a: Purified human C3a peptide (Complement Technologies), C3a receptor agonist, amino acid sequence SEQ ID NO: 1
extent of freezing, C3a vs PBS ([1]; C3aR−/− mice, same protocol): did not differ | freezing behavior after the conditioned cue vs HI PBS-treated mice ([1]; WT mice, intranasal C3a once daily 7 days from 1 h after HI, p<0.05): significantly increased freezing behavior | ischemia-induced upregulation of GFAP ([2]; cultured primary astrocytes, C3aR-dependent): attenuated ischemia-induced upregulation of GFAP | survival of astrocytes ([2]; in vitro ischemia model): increased the survival of astrocytes | HI-induced loss of hippocampal tissue [3]: did not affect HI-induced loss of hippocampal tissue
